Source: patent US8222260B2, “Substituted 6-anilinopurine derivatives as inhibitors of cytokinin oxidase/dehydrogenase and preparations containing these derivatives” (Univerzita Palackego V Olomouci, priority 2007, dated 2012)
Where two headings read alike, the source gives them in different places.

How the values were obtained:
[1] = tested on: osteosarcoma cell line HOS; test: Calcein AM cytotoxicity assay; format: cell-based, human; settings: 72 hours
Text: (§1) Absence of toxic effects against mammalian (especially human) cell lines in a wide concentration range is one of the requirements on compounds intended for use in agriculture and medicine. Because toxic compounds negatively influence metabolic processes in cells, many standard cytotoxicity assays are based on measurement of metabolisation rate of various artificial substrates. Resulting product is then quantified e.g. by means of spectrometry. The assays can be easily modified for use in 96-well plates. For evaluation of cytotoxic effect of compounds of this invention, a microtiter assay based on quantification of metabolisation of Calcein AM was used. The assay is widely used in drug screening programs and in chemosensitivity testing. In live cells, Calcein AM is enzymatically hydrolysed and accumulation of resulting calcein is manifested by green fluorescence.
Following human cell lines were used for routine screening of the compounds: T-lymphoblastic leukemia cell line CEM, promyelocytic leukemia cell line HL-60, erytroid leukemia cell line K-562, breast carcinoma cell line MCF-7, osteosarcoma cell line HOS and melanoma cell line G-361. Mouse cell lines B16-F10 (melanoma) and NIH-3T3 (fibroblasts) were used as well. The cells were maintained in Nunc/Corning 80 cm^2 plastic tissue culture flasks and cultured in cell culture medium (DMEM with 5 g/l glucose, 2 mM glutamine, 100 U/ml penicillin, 100 μg/ml streptomycin, 10% fetal calf serum and sodium bicarbonate).
(§2) The cell suspensions were prepared and diluted according to the particular cell type and the expected target cell density (2.500-30.000 cells per well based on cell growth characteristics) and pippetted (80 μl) into 96-well plates. Inoculates were allowed a pre-incubation period of 24 hours at 37° C. and 5% CO2 for stabilisation. Tested compound was added in total volume of 20 μl of water at time zero. Usually, test compound was evaluated at six 3-fold dilutions. In routine testing, the highest concentration tested was 166.6 μM. All drug concentrations were tested in triplicates. Incubations of cells with the test compounds lasted for 72 hours at 37° C., in 5% CO2 atmosphere and 100% humidity. At the end of incubation period Calcein AM in PBS was added into final concentration of 1 μg/ml. After another 1 hour of incubation fluorescence (FD) was measured with the Labsystem FIA Reader Fluoroscan Ascent (UK). Growth inhibition (GI) was estimated using the following equitation: GI=(mean FDdrug exposed wells−mean FDblank)/(mean FDcontrol wells−mean FDblank)×100%. The GI50 value, the drug concentration causing 50% reduction of Calcein AM conversion, was calculated from the obtained dose response curves.

AHK3 = biological target: T1, AHK3 (Arabidopsis thaliana, UniProt Q9C5U1); test: Activation of cytokinin receptors (E. coli KMI001 beta-galactosidase reporter); format: cell-based; settings: 28 h incubation; n.a. means no activation
T1 sequence (Q9C5U1 1-1036): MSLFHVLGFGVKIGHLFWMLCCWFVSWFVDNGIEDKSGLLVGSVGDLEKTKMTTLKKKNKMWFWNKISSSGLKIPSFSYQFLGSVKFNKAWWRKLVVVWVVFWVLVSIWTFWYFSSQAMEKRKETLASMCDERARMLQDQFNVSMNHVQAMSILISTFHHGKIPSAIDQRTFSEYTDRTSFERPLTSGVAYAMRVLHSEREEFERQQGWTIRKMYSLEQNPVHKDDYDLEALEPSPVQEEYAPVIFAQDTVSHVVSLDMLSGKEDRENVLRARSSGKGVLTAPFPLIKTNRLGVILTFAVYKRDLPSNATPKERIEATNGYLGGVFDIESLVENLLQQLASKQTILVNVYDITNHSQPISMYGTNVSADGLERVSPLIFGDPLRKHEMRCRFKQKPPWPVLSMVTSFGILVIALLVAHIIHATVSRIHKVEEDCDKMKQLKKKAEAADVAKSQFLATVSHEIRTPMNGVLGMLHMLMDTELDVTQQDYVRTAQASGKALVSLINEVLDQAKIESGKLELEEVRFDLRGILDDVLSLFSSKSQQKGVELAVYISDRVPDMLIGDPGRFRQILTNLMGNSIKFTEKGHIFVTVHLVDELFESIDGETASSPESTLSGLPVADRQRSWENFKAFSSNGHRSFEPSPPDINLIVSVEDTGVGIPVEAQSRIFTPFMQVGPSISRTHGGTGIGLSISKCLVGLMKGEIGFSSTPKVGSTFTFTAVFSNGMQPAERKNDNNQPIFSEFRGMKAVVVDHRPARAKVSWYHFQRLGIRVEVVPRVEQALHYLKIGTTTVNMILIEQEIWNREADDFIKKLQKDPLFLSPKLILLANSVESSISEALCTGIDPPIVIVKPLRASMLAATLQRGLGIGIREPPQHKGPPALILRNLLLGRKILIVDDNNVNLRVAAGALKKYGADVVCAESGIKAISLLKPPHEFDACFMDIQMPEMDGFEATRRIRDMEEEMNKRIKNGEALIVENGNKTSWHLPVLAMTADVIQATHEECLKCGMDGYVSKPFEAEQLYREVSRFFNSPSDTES
Method: Escherichia coli strains KMI001 harbouring the plasmid […]4 or […]3 were grown overnight at 25° C. in M9 media enriched with 0.1% casamino acids to OD600 1. The preculture was diluted 1:600 in 1 ml M9 medium containing 0.1% casamino acids and 1 μl stock solution of either the tested compound (10^-7 M-5×10^-5 M) or solvent control (DMSO, ethanol, methanol) were added. The cultures were further grown at 25° C. in microtiter plate, 200 μl per well. […] The cultures were centrifuged and 50 μl aliquots of the supernatant were transferred to microtiter plate containing 2 μl 150 mM 4-methyl umbelliferyl galactoside which was subsequently incubated for 1 h at 37° C. The reaction was stopped by adding 100 μl 0.2 M Na2CO3. […] The EC50 value, the compound concentration activating the receptor to 50%, was calculated from the obtained dose response curves. The values shown in Table 10 are means of three replicates and the entire test was repeated at least twice.

NIH-3T3 (fibroblasts) = test: Calcein AM cytotoxicity assay; format: cell-based, Mouse
Text: as §1
(§3) Mouse cell lines B16-F10 (melanoma) and NIH-3T3 (fibroblasts) were used as well. The cells were maintained in Nunc/Corning 80 cm^2 plastic tissue culture flasks and cultured in cell culture medium (DMEM with 5 g/l glucose, 2 mM glutamine, 100 U/ml penicillin, 100 μg/ml streptomycin, 10% fetal calf serum and sodium bicarbonate).
as §2, with “In routine testing, the highest concentration tested was 166.6 μM.” left out, “FDblank)×100%.” for “FDblank)×100%. The GI50 value, the drug concentration causing 50% reduction of Calcein AM conversion, was calculated from the obtained dose response curves.”

[2] = tested on: Amaranthus caudatus cotyledon/hypocotyl explants; test: Amaranthus bioassay (betacyanin content); format: cell-based, Amaranthus caudatus var. atropurpurea; settings: for Activity (%) [10^−5 mol · l^−1 K = 100%]: at the concentration with highest activity, relative to 10^−5 M kinetin
Method: The standard Amaranthus bioassay was performed with the following modifications. The seeds of Amaranthus caudatus var. atropurpurea were surface-sterilised in 10% (w/v) N-chlorobenzenesulfonamide for 10 min and washed 5 times with deionized water. They were placed in 15 cm Petri dishes containing paper tissues saturated with deionized water. After 72 h of cultivation at 25° C. in darkness, the roots of the seedlings were cut off. The explants, consisting of two cotyledons and hypocotyls, were placed in 5 cm Petri dishes onto two layers of filtration paper soaked with 1 ml of the incubation medium containing 10 μmol of Na2HPO4—KH2PO4, pH 6.8, 5 μmol of tyrosine and the compound to be tested. There were 20 explants per dish. The procedure was carried out under green safe light in a darkroom. After 48 h of incubation at 25° C. in darkness, betacyanin was extracted by freezing the explants in 4 ml 3.33 μM acetic acid. The concentration of betacyanin was determined from the absorbances at 537 nm and 620 nm as follows: ΔA=A537nm−A620nm. The values ΔA were plotted against the concentration tested, are means of five replicates and the entire test was repeated at least twice. […] The compounds to be tested were dissolved in dimethylsulfoxide (DMSO) and the solution brought up to 10^−3M with distilled water.
From the obtained data, the concentration with the highest activity was selected for each compound tested. Relative activity of the compound at this concentration was calculated (Tab. 12). The activity obtained for 10^−5 M kinetin (K) was postulated as 100%.

[3] = tested on: breast carcinoma cell line MCF-7; test: Calcein AM cytotoxicity assay; format: cell-based, human
Text: as §1, §3
as §2, with “In routine testing, the highest concentration tested was 166.6 μM.” left out, “FDblank)×100%.” for “FDblank)×100%. The GI50 value, the drug concentration causing 50% reduction of Calcein AM conversion, was calculated from the obtained dose response curves.”

recombinant AtCKX2 = biological target: T2, recombinant AtCKX2 (Arabidopsis thaliana, UniProt Q9FUJ3); test: Inhibition of cytokinin oxidase/dehydrogenase activity (PMS/MTT microtitre plate assay); format: biochemical
T2 sequence (Q9FUJ3 23-501): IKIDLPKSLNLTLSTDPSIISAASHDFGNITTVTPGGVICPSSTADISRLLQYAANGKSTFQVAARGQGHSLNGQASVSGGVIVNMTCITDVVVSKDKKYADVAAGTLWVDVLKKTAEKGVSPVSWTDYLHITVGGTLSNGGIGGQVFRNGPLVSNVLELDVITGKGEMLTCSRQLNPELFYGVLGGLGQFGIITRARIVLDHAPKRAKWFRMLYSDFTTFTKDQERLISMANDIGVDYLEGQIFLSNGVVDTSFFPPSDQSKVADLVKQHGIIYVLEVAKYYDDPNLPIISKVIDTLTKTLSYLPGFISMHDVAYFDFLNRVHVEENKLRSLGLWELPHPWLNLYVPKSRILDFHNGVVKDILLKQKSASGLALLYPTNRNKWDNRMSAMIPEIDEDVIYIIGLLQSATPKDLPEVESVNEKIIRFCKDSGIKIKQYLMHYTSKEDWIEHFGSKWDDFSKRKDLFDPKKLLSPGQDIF
Method: IC50 determinations were done using the assay in microtitre plate. Each well contained 100 μL of PMS/MTT [phenazine methosulfate/3-(4,5-dimethylthiazol-2-yl)-2,5-diphenyltetrazolium bromide] reaction mixture (final concentrations: 0.1 M KH2PO4, pH 7.4, 1 mM MTT, 0.2 mM PMS) containing the tested compound (3×10^−7 M-3×10^−4 M) and 30 μM N^6-isopentenyladenine (iP) as a substrate. 100 μL of cell-free growth medium of S. cerevisiae strain 23344c ura^− harboring the plasmid pYES2-AtCKX2 was directly used as a source of AtCKX2. Plates were incubated in the dark for […] at 37° C. and the enzymatic reaction was stopped by 25 μL of 35% acetic acid. The absorbance at 578 nm was measured using spectrophotometer Tecan. Absorbance of the sample without iP was subtracted.
The IC50 value, the compound concentration that inhibits the enzyme activity to 50%, was calculated from the obtained dose response curves. The values shown in Table 9 are means of three replicates and the entire test was repeated at least twice.

[4] = tested on: cytokinin-dependent tobacco callus Nicotiana tabacum L. cv. Wisconsin 38; test: Tobacco callus biotest (plant cell division); format: cell-based
Method: The stimulatory effect of the newly prepared derivatives was tested in the calus biotest using cytokinin-dependent tobacco callus. Cytokinin-dependent tobacco callus Nicotiana tabacum L. cv. Wisconsin 38 was maintained at 25° C. in darkness on modified Murashige-Skoog medium, containing per 1 liter: 4 μmol of nicotinic acid, 2.4 μmol of pyridoxine hydrochloride, 1.2 μmol of thiamine, 26.6 μmol of glycine, 1.37 μmol of glutamine, 1.8 μmol of myo-inositol, 30 g of sucrose, 8 g of agar, 5.37 μmol of NAA and 0.5 μmol of 6-benzylaminopurine. Subcultivation was carried out every three weeks. Fourteen days before the bioassay, the callus tissue was transferred to the media without 6-benzylaminopurine. The biological activity was determined from the increase of the fresh callus weight after four weeks of cultivation. Five replicates were prepared for each concentration of the compound tested and the entire test was repeated twice. […] The compounds to be tested were dissolved in dimethylsulfoxide (DMSO) and the solution brought up to 10^−3 M with distilled water.
From the obtained data, the concentration with the highest activity was selected for each compound tested. Relative activity of the compound at this concentration was calculated (Table 11). The activity obtained for 10^−5 M of the control substance kinetin (K) was postulated as 100%.

| SMILES | Activity (%) [10^−5 mol · l^−1 K = 100%] [2] [%] | GI50 [1] [µM] | GI50 (NIH-3T3 (fibroblasts); 72 hours) [µM] | GI50 ([3]; 72 hours, read-out: GI50 MCF7) [µM] | other results |
| --- | --- | --- | --- | --- | --- |
| Nc1nc(Nc2ccccc2)c2nc[nH]c2n1 [Compound 64] | 125.2 |  |  |  | GI50 ([1]; Homo sapiens): > 167 µM; EC50 (AHK3): 25.3 µM; GI50 (NIH-3T3 (fibroblasts); Mus musculus, NIH3T3, 72 hours): > 167 µM; GI50 ([3]; Homo sapiens, MCF7, 72 hours): > 167 µM |
| Nc1nc(Nc2cccc(F)c2)c2nc[nH]c2n1 [Compound 69] | 113.2 |  |  |  | IC50 (recombinant AtCKX2; 30 μM iP as substrate, pH 7.4, 37° C., means of three replicates, read-out: IC50, inhibition of recombinant AtCKX2): 29.4 µM; EC50 (AHK3): > 50 µM |
| Sc1nc(Nc2ccccc2)c2nc[nH]c2n1 [Compound 78, 2-Thio-6-anilinopurine] |  | > 167 | > 167 | > 167 |  |
| COc1ccccc1Nc1nc(S)nc2nc[nH]c12 [Compound 87] |  | > 167 | > 167 | > 167 |  |
| CSc1nc(Nc2ccccc2)c2[nH]cnc2n1 [Compound 94, 2-Methylthio-6-anilinopurine] |  |  |  |  | GI50 ([1]; Homo sapiens): > 167 µM; GI50 (NIH-3T3 (fibroblasts); Mus musculus, NIH3T3, 72 hours): > 167 µM; GI50 ([3]; Homo sapiens, MCF7, 72 hours): > 167 µM |
| CSc1nc(Nc2cccc(O)c2)c2nc[nH]c2n1 [Compound 101] |  | > 167 | > 167 | > 167 |  |
| COc1cccc(Nc2nc(SC)nc3[nH]cnc23)c1 [Compound 103] | 156.4 | > 167 | > 167 | > 167 | concentration with highest activity ([2]; 48 h): 10^−5 mol · l^−1; Activity (%) [10^−5 mol · l^−1 K = 100%] ([4]; at the concentration with highest activity, relative to 10^−5 M kinetin): 142.8%; concentration with highest activity ([4]; fresh weight after four weeks): 10^−5 mol · l^−1 |
| Cc1nc(Nc2cccc(O)c2)c2nc[nH]c2n1 [Compound 116] |  | > 167 | > 167 | > 167 |  |
| O=C(Nc1ccccc1)Nc1cnns1 [thidiazuron, reference compound] |  |  |  |  | IC50 (recombinant AtCKX2): 30 µM |
